Experimental data: patent EP0694545B1, “Substituted dibenzoxazepine compounds, pharmaceutical compositions and methods of use” (G.D. SEARLE & CO., priority 1991, dated 1992)
Structures can show the parent of a compound that is named as a salt.

Test system: Charles River male albino mice
Test: PBQ Writhing Assay (analgesic activity)
Format: in vivo
Design: key to PBQ WRITHING ASSAY I.G. (Active / *) / PBQ WRITHING ASSAY S.C. (Active / *): *: Indicates that, in accordance with the particular conditions set forth above for the Writhing Assay, and under the test criteria employed for that assay, after the administration of an initial screening dosage of 30 mg per kilogram of the compound, the number of writhes elicited by a mouse injected with PBQ was not equal to, or less than, one-half the median number of writhes recorded for the saline-treated control group of mice that day
Conditions: for PBQ WRITHING ASSAY I.G. (Active / *): intragastric; for PBQ WRITHING ASSAY I.G. (Active / *) / PBQ WRITHING ASSAY S.C. (Active / *): initial screening dose 30 mg per kilogram, 30 min before PBQ i.p., writhes counted for ten minutes; for PBQ WRITHING ASSAY S.C. (Active / *): subcutaneous
Source text: The Writhing Assay is one of the most widely-used experimental procedures for measuring the analgesic activity of different narcotic and nonnarcotic analgesic agents, and involves the continuous, chemically-induced pain of visceral origin to an animal, such as a mouse or rat. [Gyires et al., Arch. int. Pharmacodyn, 267, 131-140 (1984); […] al., Fed. Proc., 15, 494 (1956); Koster et al., Fed. Proc., 18, 412 (1959); and Witken et al., J. Pharmacol. exp. Ther., 133, 400-408 (1961).] Chemicals which may be used to induce this pain include phenylbenzoquinone (PBQ) and acetic acid. As a result of the chemical irritation to the animal, a characteristic stretching and writhing of the animal (dorsiflexion of the animal's back, extension of its hindlimbs and the strong contraction of its abdominal musculature) will generally occur. […] Drugs which reduce the number of writhes of the animal appear to restore the normal nociceptive threshold of the animal. Charles River male albino mice, weighing 20 to 30 grams were used in this assay. Thirty minutes after subcutaneous or intragastric administration to ten mice of 30 mg per kilogram of body weight of a compound of the present invention ("test compound"), […] per 10 g of body weight of a 0.025% w/v solution of PBQ was injected intraperitoneally into each mouse. Ten mice which were given saline in place of a test compound of the invention were used as a control group. Five minutes later, each mouse was individually placed into a glass beaker for observation, and the number of writhes occurring during the following ten-minute period was counted. A test compound was considered to have produced analgesia in a mouse if, in accordance with the conditions set forth above, and under the test criteria employed for this assay, after the administration of 30 mg per kilogram of body weight of a compound of the present invention to the mouse, the number of writhes elicited by a mouse injected with PBQ was equal to, or less than, one-half the median number of writhes recorded for the saline-treated control group of mice that day, as described by Taber in "Predictive Value of Analgesic Assays in Mice and Rats," Advances in Biochemical Psychopharmacology, 8, 191 (1974). The standard initial screening dose of a test compound employed in this assay was […] for both routes of administration. If this initial screening dose of the test compound produced analgesia in seven of ten mice, then the effect of additional doses of the test compound on the writhing response was evaluated, and then the ED50 dose was generally calculated. (The slopes of the dose-response curves for all test compounds analyzed were compared as described by Tallarida and Murray, Manual of Pharmacologic Calculations, Page 11 (Springer Verlag, New York, 1981)).

Compound	PBQ WRITHING ASSAY I.G. (Active / *)	PBQ WRITHING ASSAY S.C. (Active / *)	ED50 (Mus musculus, po, intragastric administration, read-out: PBQ WRITHING ASSAY (ED50 (mpk)) I.G.) [mg/kg]
Cl.O=C(NNC(=O)N1Cc2ccccc2Oc2ccc(Cl)cc21)c1cccnc1 [Example 18, 8-chlorodibenz[b,f][1,4]oxazepine-10(11H)-carboxylic acid, 2-(3-pyridinylcarbonyl)hydrazide, monohydrochloride]	*	*	
Cl.O=C(Cc1cccnc1)NNC(=O)N1Cc2ccccc2Oc2ccc(Cl)cc21 [Example 22, 8-chlorodibenz[b,f][1,4]oxazepine-10(11H)-carboxylic acid, 2-(3-pyridinylacetyl)hydrazide, monohydrochloride]	*	Active	
Cl.O=C(/C=C/c1ccccn1)NNC(=O)N1Cc2ccccc2Oc2ccc(Cl)cc21 [Example 20, 8-chlorodibenz[b,f][1,4]oxazepine-10(11H)-carboxylic acid, 2-[1-oxo-3-(2-pyridinyl)-2E-propenyl]hydrazide, monohydrochloride]	*	*	
Cl.O=C(Cc1ccncc1)NNC(=O)N1Cc2ccccc2Oc2ccc(Cl)cc21 [Example 23, 8-chlorodibenz[b,f][1,4]oxazepine-10(11H)-carboxylic acid, 2-(4-pyridinylacetyl)hydrazide, monohydrochloride]	*	*	
O=C(CCCc1ccncc1)NNC(=O)N1Cc2ccccc2Oc2ccc(Cl)cc21 [Example 31, 8-chlorodibenz[b,f][1,4]oxazepine-10(11H)-carboxylic acid, 2-[1-oxo-4-(4-pyridinyl)butyl]hydrazide]	Active	Active	
O=C(CCc1cccc[n+]1[O-])NNC(=O)N1Cc2ccccc2Oc2ccc(Cl)cc21 [Example 10, 8-chlorodibenz[b,f][1,4]oxazepine-10(11H)--carboxylic acid, 2-[1-oxo-3-(2-pyridinyl)propyl]hydrazide, N-oxide]	*	*	
O=C(CCc1cccnc1)NNC(=O)N1Cc2ccccc2Oc2ccc(Cl)cc21 [Example 8, 8-chlorodibenz[b,f][1,4]oxazepine-10(11H)-carboxylic acid, 2-[1-oxo-3-(3-pyridinyl)propyl]hydrazide, monohydrochloride]	Active	Active	
8-chlorodibenz[b,f][1,4]oxazepine-10(11H)-carboxylic acid, 2-[1-oxo-4-(3-thienyl)-3Z-butenyl]hydrazide [Example 14]	*	*	
O=C(CCCCc1cccs1)NNC(=O)N1Cc2ccccc2Oc2ccc(Cl)cc21 [Example 33, β-chlorodibenz[b,f][1,4]oxazepine-10(11H)-carboxylic acid, 2-[1-oxo-5-(2-thienyl)pentyl]hydrazide]	*	*	
Cl.O=C(NNC(=O)N1Cc2ccccc2Oc2ccc(Cl)cc21)c1ccccn1 [Example 19, 8-chlorodibenz[b,f][1,4]oxazepine-10(11H)-carboxylic acid, 2-(2-pyridinylcarbonyl)hydrazide, monohydrochloride]	*	*	
Cl.O=C(NNC(=O)N1Cc2ccccc2Oc2ccc(Cl)cc21)c1ccncc1 [Example 17, 8-chlorodibenz[b,f][1,4]oxazepine-10(11H)-carboxylic acid, 2-(4-pyridinylcarbonyl)hydrazide, monohydrochloride]	*	*	
O=C(CCCc1ccsc1)NNC(=O)N1Cc2ccccc2Oc2ccc(Cl)cc21 [Example 16, 8-chlorodibenz[b,f][1,4]oxazepine-10(11H)-carboxylic acid, 2-[1-oxo-4-(3-thienyl)butyl]hydrazide]	Active	*	
8-chlorodibenz[b,f][1,4loxazepine-10(11H)-carboxylic acid, 2-(2-pyridinylacetyl)hydrazide, monohydrochloride [Example 21]	*	*	
Cl.O=C(/C=C/c1ccncc1)NNC(=O)N1Cc2ccccc2Oc2ccc(Cl)cc21 [Example 27, 8-chlorodibenz[b,f][1,4]oxazepine-10(11H)-carboxylic acid, 2-[1-oxo-3-(4-pyridinyl)-2E-propenyl]hydrazide, monohydrochloride]	*	*	
Cl.O=C(CCCc1ccccn1)NNC(=O)N1Cc2ccccc2Oc2ccc(Cl)cc21 [Example 29, 8-chlorodibenz[b,f][1,4]oxazepine-10(11H)-carboxylic acid, 2-[1-oxo-4-(2-pyridinyl)butyl]hydrazide, monohydrochloride]	Active	Active	
O=C(NNC(=O)C(F)(F)Cc1ccccn1)N1Cc2ccccc2Oc2ccc(Cl)cc21 [Example 37, 8-chlorodibenz[b,f][1,4]oxazepine-10(11H)-carboxylic acid, 2-[2,2-difluoro-1-oxo-3-(2-pyridinyl)propyl]hydrazide]	Active		9.7
O=C(/C=C/c1cccnc1)NNC(=O)N1Cc2ccccc2Oc2ccc(Cl)cc21 [Example 7, 8-chlorodibenz[b,f][1,4]oxazepine-10(11H)-carboxylic acid, 2-[1-oxo-3-(3-pyridinyl)-2E-propenyl]hydrazide]	Active	Active	
8-chlorodibenz[b,f][1,4]oxazepine-10(11H)-carboxylic acid, 2-[1-oxo-4-(3-thienyl)-3E-butenyl]hydrazide [Example 13]	*	*	
